The source made the active and inactive calls. The calls are words filed in the database; no cut-off is given here.
Experiments:
[1] = Cytotoxicity against bovine MDBK cells assessed as reduction in cell viability after 3 days by MTS/PES assay; assay type: cell-based, Bos taurus; details: cattle
[2] = Antiviral activity against Bovine viral diarrhea virus 1-NADL infected in bovine MDBK cells assessed as reduction in plaque forming units after 72 hrs by crystal violet staining-based assay; assay type: functional, cell-based; details: Bovine viral diarrhea virus isolates and strains
[3] = Selectivity index, ratio of CC50 for bovine MDBK cells to EC50 for Bovine viral diarrhea virus 1-NADL; assay type: toxicity; details: cattle, read-out: Ratio CC50/EC50
[4] = test system: Bovine viral diarrhea virus 1; assay: Antiviral activity against wild type Bovine viral diarrhea virus 1 ATCC VR 534 infected in bovine MDBK cells assessed as reduction in virus induced cytopathic effect after 72 hrs by MTS/PES assay; assay type: functional, cell-based; details: Bovine viral diarrhea virus isolates and strains, ATCC VR 534, MDBK
[5] = test system: Bovine viral diarrhea virus 1; assay: Ratio of EC50 for TSC-resistant Bovine viral diarrhea virus type 1 harboring NS5B N264D/A392E double mutant to EC50 for wild type Bovine viral diarrhea virus type 1 ATCC VR 534; assay type: functional
[6] = test system: Bovine viral diarrhea virus 1; assay: Antiviral activity against TSC-resistant Bovine viral diarrhea virus 1 harboring NS5B N264D/A392E double mutant infected in bovine MDBK cells assessed as reduction in virus induced cytopathic effect after 72 hrs by MTS/PES assay; assay type: functional, cell-based; details: Bovine viral diarrhea virus isolates and strains
[7] = test system: Bovine viral diarrhea virus 1; assay: Antiviral activity against Bovine viral diarrhea virus 1 ATCC VR 534 infected in bovine MDBK cells assessed as reduction in virus induced cytopathic effect at 25 uM treated up to 4 hrs post infection measured after 48 hrs by MTS/PES assay; assay type: functional, cell-based

## COc1ccc(NC(=S)N/N=C2\CCc3ccccc32)cc1
[1]
  CC50 at 72 h: > 10 µM
[2]
  EC50: > 10 µM

## COc1cc2c(cc1OC)/C(=N/NC(=S)Nc1ccc(Cl)cc1)CC2
[1]
  CC50 at 72 h: > 10 µM
[3]
  selectivity ratio: > 1.5
[2]
  EC50: 6.6 µM

## NC(=S)N/N=C1\CCc2c1cccc2[N+](=O)[O-]
[1]
  CC50 at 72 h: 84.6 µM
[3]
  selectivity ratio: 14.2
[2]
  EC50: 6.1 µM

## COc1cc2c(cc1OC)/C(=N/NC(N)=S)CC2
[1]
  CC50 at 72 h: > 80 µM
[3]
  selectivity ratio: > 21.1
[4]
  EC50: 1.95 µM
[5]
  Ratio EC50: >41
[2]
  EC50: 3.8 µM
[6]
  EC50: > 80 µM

## COc1cc2c(cc1OC)/C(=N/NC(=S)Nc1ccc(F)cc1)CC2
[1]
  CC50 at 72 h: > 20 µM
[3]
  selectivity ratio: > 5
[2]
  EC50: 4 µM

## NC(=S)N/N=C1\CCc2cc(F)ccc21
[1]
  CC50 at 72 h: 41.9 µM
[3]
  selectivity ratio: 5.4
[2]
  EC50: 9 µM

## COc1cc2c(cc1OC)/C(=N/NC(=S)Nc1ccc(C)cc1)CC2
[1]
  CC50 at 72 h: > 20 µM
[3]
  selectivity ratio: > 2.3
[2]
  EC50: 8.8 µM

## NC(=S)N/N=C1\CCc2ccc([N+](=O)[O-])cc21
[1]
  CC50 at 72 h: > 25 µM
[7]
  inhibition: Active
[3]
  selectivity ratio: > 9.3
[4]
  EC50: 1.04 µM
[2]
  EC50: 2.7 µM
[6]
  EC50: 1.07 µM

## Fc1ccc(NC(=S)N/N=C2\CCc3ccccc32)cc1
[1]
  CC50 at 72 h: > 20 µM
[2]
  EC50: > 20 µM

## NC(=O)c1ncn([C@@H]2O[C@H](CO)[C@@H](O)[C@H]2O)n1 [RIBAVIRIN]
[3]
  selectivity ratio: 7.1
[2]
  EC50: 7.7 µM

## Cc1cc(Br)c(C)c2c1/C(=N/NC(N)=S)CC2
[1]
  CC50 at 72 h: > 100 µM
[3]
  selectivity ratio: > 13.5
[2]
  EC50: 7.4 µM

## O=[N+]([O-])c1ccc(NC(=S)N/N=C2\CCc3ccccc32)cc1
[1]
  CC50 at 72 h: > 10 µM
[2]
  EC50: > 10 µM

## S=C(N/N=C1\CCc2ccccc21)Nc1ccccc1
[1]
  CC50 at 72 h: > 10 µM
[2]
  EC50: > 10 µM

## COc1ccc(NC(=S)N/N=C2\CCc3cc(OC)c(OC)cc32)cc1
[1]
  CC50 at 72 h: > 20 µM
[3]
  selectivity ratio: > 1.6
[2]
  EC50: 12.9 µM

## COc1cc2c(cc1OC)/C(=N/NC(=S)Nc1ccccc1)CC2
[1]
  CC50 at 72 h: > 10 µM
[3]
  selectivity ratio: > 1.2
[2]
  EC50: 8.4 µM

## S=C(N/N=C1\CCc2ccccc21)Nc1ccc(Cl)cc1
[1]
  CC50 at 72 h: > 20 µM
[2]
  EC50: > 20 µM

## COc1cc2c(cc1OC)/C(=N/NC(=S)Nc1ccc([N+](=O)[O-])cc1)CC2
[1]
  CC50 at 72 h: > 10 µM
[3]
  selectivity ratio: > 14.3
[4]
  EC50: 0.45 µM
[5]
  Ratio EC50: >22
[2]
  EC50: 0.7 µM
[6]
  EC50: > 10 µM

## Cc1ccc(NC(=S)N/N=C2\CCc3ccccc32)cc1
[1]
  CC50 at 72 h: > 20 µM
[2]
  EC50: > 20 µM

From ChEMBL document CHEMBL4052663, “Synthesis, antiviral evaluation and molecular docking studies of N4-aryl substituted/unsubstituted thiosemicarbazones derived from 1-indanones as potent anti-bovine viral diarrhea virus agents” (Bioorg Med Chem, 2017)
